Read-outs that look alike come from different tables or passages of the source.
Columns and labels:
Format in all cases: cell-based, human
COLO205 cells [1] = assay: Cell cycle distribution by flow cytometry; settings: 24 h; for Cell Cycle Distribution G0/G1 / Cell Cycle Distribution G2/M / Cell Cycle Distribution S: COLO205 cells, Table 12
Outline: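 Human cancer cells (2×10^5 per dish) exposed 24 h to compound at 5–100 μM, or DMSO. Cells ethanol-fixed at −20° C overnight, RNase/Triton-treated at 37° C for 30 min, then stained with propidium iodide. DNA content read by FACScan flow cytometry to give phase distribution.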

HL-60 cells [2] = assay: Cell cycle distribution by flow cytometry; settings: 24 h, Table 10
Protocol: (§1) The human cancer cells (2×10^5) were cultured in 60-mm Petri dishes and incubated for 24 h. After treated with test compounds for 24 h, the cells were then harvested, washed with PBS resuspended in 200 μL of PBS, and fixed in 800 μL of iced 100% ethanol at −20° C. After being left to stand overnight, the cell pellets were collected by centrifugation, resuspended in 1 mL of hypotonic buffer (0.5% Triton X-100 in PBS and 0.5 μg/mL RNase) and incubated at 37° C. for 30 min. Next, 1 mL of propidium iodide solution (50 μg/mL) was added, and the mixture was allowed to stand on ice for 30 min. Fluorescence emitted from the propidium iodide-DNA complex was quantitated after excitation of the fluorescent dye by FACScan cytometry (Becton Dickinson, San Jose, Calif.).
The effects of the hydrolyzed PMF-enriched compositions, nobiletin and 70% PMF OPE on cell cycle distribution were studied, following the procedures described in Section 8.4. Results for cell cycle distribution in HL-60 cells, COLO205 cells and AGS cells are provided in Table 5, Table 6 and Table 7, respectively. […] In HL-60 cells, G2/M arrest predominated in cells treated with 6N PMF concentrations ≧5 μM and with 1N PMF concentrations ≧25 μM.
Compounds A-K were evaluated in terms of their effects in arresting cell cycle progression by observing cell cycle phase distribution in cells treated with the compounds. Cells were treated with 5, 10, 25, 50, and 100 μM of one of compound A-K or DMSO (control) for 24 h and subjected to flow cytometric analysis after staining their DNA, as described above.

COLO205 cells [3] = assay: Cell survival assay (antiproliferative IC50); settings: Homo sapiens
Protocol: (§2) Human colon carcinoma COLO205 and HT-29 cell lines (American Type Culture Collection (ATTC), Manassas, Va.) and the leukemia cell line HL-60 were maintained at 37° C. in 5% CO2 air in RPMI 1640 medium supplemented with 10% heat-inactivated fetal bovine serum (Gibco BRL, Grand Island, N.Y.), 100 units/mL penicillin, 100 μg/mL streptomycin and 2 mM 1-glutamine. The human gastric carcinoma AGS cell line (CCRC 60102), obtained from the Food Industry Research and Development Institute (Hsinchu, Taiwan), was maintained as described above, except that DMEM/F 12 was used as the medium rather than the RPMI 1640 medium. The human breast carcinoma MCF-7 cell line MCF-7 (ATTC) was cultured in RPMI 1640 medium supplemented with 5% fetal calf serum at 37° C. in a humidified atmosphere of 5% CO2 in air. The mouse macrophage cell line RAW 264.7 was maintained in RPMI 1640 supplemented with 100 U/ml penicillin, 100 μg/ml streptomycin, and 10% heat-inactivated fetal calf serum.
(§3) Cancer cells (2×10^5) were plated in 12-well Petri dishes. The next day, the medium was changed and treated with different concentration of the test compounds or compositions for 24 h. Where individual compounds were to be tested, stock solutions of the compound was prepared to contain 200 μM of the individual hydroxylated or non-hydroxylated PMF in dimethylsulfoxide (DMSO). Control cells were treated with DMSO to a final concentration of 0.05% (v/v). Depending on the objective of the particular experiment, cells were treating with test compound or composition for 1, 3 or 6 days. At the end of incubation, cells were harvested for cell count using a hemocytometer and measuring the cellular total nucleic acid content with the CyQUANT Cell Proliferation Assay Kit (Molecular Probes).
(§4) 1 N PMF and 6 N PMF compositions containing hydroxylated PMFs, prepared as described in Section 8.3 above, 70% PMF OPE and 5,6,7,8,3′,4′-hexamethoxyflavone (nobiletin) were tested for antiproliferative activity and apoptosis-inducing activity in HL-60, AGS and COLO205 cells as described in Section 8.4 above. Antiproliferative and apoptosis-inducing activities were derived as IC50 values and AC50, values, respectively, where AC50 is the concentration required for 50% apoptosis.
(§5) The PMF compounds were assayed in vitro for cell growth inhibition and for their ability to induce apoptosis in various human cancer cells, including HL-60, AGS, COLO 205, and HT-29 cells, using methods described in Section 8.4 above. Antiproliferative (IC50) and apoptosis-inducing activity (AC50) of PMFs in the HL-60, AGS, COLO 205, and HT-29 cells are reported in Table 9, where *P<0.05, **P<0.01 and ***P<0.001 indicate statistically significant differences from the control group.

HL-60 cells [4] = assay: Cell survival assay (antiproliferative IC50); settings: Homo sapiens
Protocol: as §2, §3, §4, §5

AGS cells = assay: Cell survival assay (antiproliferative IC50); settings: Homo sapiens, read-out: Antiproliferative IC50
Protocol: as §2, §3, §4, §5

HT-29 cells = assay: Apoptotic ratio by propidium iodide flow cytometry (AC50); settings: Homo sapiens, read-out: Apoptosis-inducing AC50
Protocol: as §1, §5

SMILES	Cell Cycle Distribution G0/G1 (COLO205 cells [1]; 5 μM)	Cell Cycle Distribution G2/M (COLO205 cells [1]; 5 μM)	Cell Cycle Distribution S (COLO205 cells [1]; 5 μM)	Cell Cycle Distribution G0/G1 (COLO205 cells [1]; 10 μM)	Cell Cycle Distribution G2/M (COLO205 cells [1]; 10 μM)	Cell Cycle Distribution S (COLO205 cells [1]; 10 μM)	Cell Cycle Distribution G0/G1 (COLO205 cells [1]; 25 μM)	Cell Cycle Distribution G2/M (COLO205 cells [1]; 25 μM)	Cell Cycle Distribution S (COLO205 cells [1]; 25 μM)	Cell Cycle Distribution G0/G1 (COLO205 cells [1]; 50 μM)	Cell Cycle Distribution G2/M (COLO205 cells [1]; 50 μM)	Cell Cycle Distribution S (COLO205 cells [1]; 50 μM)	Cell Cycle Distribution G0/G1 (COLO205 cells [1]; 100 μM)	Cell Cycle Distribution G2/M (COLO205 cells [1]; 100 μM)	Cell Cycle Distribution S (COLO205 cells [1]; 100 μM)	Cell Cycle Distribution G0/G1 (HL-60 cells [2]; 5 μM)	Cell Cycle Distribution G2/M (HL-60 cells [2]; 5 μM)	Cell Cycle Distribution S (HL-60 cells [2]; 5 μM)	Cell Cycle Distribution G0/G1 (HL-60 cells [2]; 10 μM)	Cell Cycle Distribution G2/M (HL-60 cells [2]; 10 μM)	also measured
COc1cc(-c2cc(=O)c3c(O)c(OC)c(OC)c(OC)c3o2)cc(OC)c1OC [E, 5-hydroxy-6,7,8,3′,4′,5′-hexamethoxyflavone]	67.66 ± 0.19	8.75 ± 0.17	23.60 ± 0.03	67.48 ± 0.59	8.29 ± 0.48	24.24 ± 0.11	67.40 ± 0.49	7.59 ± 1.18	25.02 ± 0.70	69.49 ± 2.62	6.59 ± 0.82	23.93 ± 1.80	69.99 ± 0.89	5.52 ± 0.90	24.50 ± 0.00	40.16 ± 1.10	6.01 ± 1.64	53.83 ± 0.54	40.43 ± 2.14	5.57 ± 1.17	Cell Cycle Distribution S (HL-60 cells [2]; 10 μM): 54.01 ± 0.98; Cell Cycle Distribution G0/G1 (HL-60 cells [2]; 25 μM): 41.35 ± 2.50; Cell Cycle Distribution G2/M (HL-60 cells [2]; 25 μM): 6.27 ± 1.05; Cell Cycle Distribution S (HL-60 cells [2]; 25 μM): 52.38 ± 1.46; Cell Cycle Distribution G0/G1 (HL-60 cells [2]; 50 μM): 37.64 ± 1.09; Cell Cycle Distribution G2/M (HL-60 cells [2]; 50 μM): 7.73 ± 0.62; Cell Cycle Distribution S (HL-60 cells [2]; 50 μM): 54.64 ± 0.49; Cell Cycle Distribution G0/G1 (HL-60 cells [2]; 100 μM): 42.95 ± 0.11; Cell Cycle Distribution G2/M (HL-60 cells [2]; 100 μM): 7.27 ± 0.84; Cell Cycle Distribution S (HL-60 cells [2]; 100 μM): 49.79 ± 0.95; IC50 (COLO205 cells [3]; COLO 205, COLO205 cells, read-out: Antiproliferative IC50): > 100 µM; IC50 (HL-60 cells [4]; HL-60 cells, read-out: Antiproliferative IC50): > 100 µM; IC50 (AGS cells; AGS cells): > 100 µM; AC50 (HT-29 cells): > 100 µM
COc1ccc(-c2cc(=O)c3c(OC)c(OC)c(OC)c(OC)c3o2)cc1O [I, 3′-hydroxy-5,6,7,8,4′-pentamethoxyflavone]	64.51 ± 1.26	6.46 ± 0.35	29.03 ± 1.61	64.14 ± 1.71	5.54 ± 0.41	30.32 ± 1.30	67.09 ± 0.57	5.43 ± 1.17	27.48 ± 0.62	68.03 ± 1.51	4.83 ± 1.48	27.15 ± 0.04	83.31 ± 1.06	0.02 ± 0.02	16.68 ± 1.04	44.51 ± 2.37	9.23 ± 0.16	46.27 ± 2.21	43.22 ± 1.85	11.92 ± 0.64	Cell cycle arrest, in words (COLO205 cells [1]; COLO 205 cells, compound A 50 μM, compound I 100 μM): trends in G1 arrest; Cell Cycle Distribution S (HL-60 cells [2]; 10 μM): 44.86 ± 2.49; Cell Cycle Distribution G0/G1 (HL-60 cells [2]; 25 μM): 50.55 ± 0.97; Cell Cycle Distribution G2/M (HL-60 cells [2]; 25 μM): 10.75 ± 0.41; Cell Cycle Distribution S (HL-60 cells [2]; 25 μM): 38.71 ± 1.38; Cell Cycle Distribution G0/G1 (HL-60 cells [2]; 50 μM): 50.23 ± 1.94; Cell Cycle Distribution G2/M (HL-60 cells [2]; 50 μM): 6.36 ± 1.69; Cell Cycle Distribution S (HL-60 cells [2]; 50 μM): 43.41 ± 3.62; Cell Cycle Distribution G0/G1 (HL-60 cells [2]; 100 μM): 65.54 ± 4.07; Cell Cycle Distribution G2/M (HL-60 cells [2]; 100 μM): 13.24 ± 11.61; Cell Cycle Distribution S (HL-60 cells [2]; 100 μM): 21.31 ± 15.55; IC50 (COLO205 cells [3]; COLO 205, read-out: Antiproliferative IC50): 76 ± 1.88 µM; IC50 (HL-60 cells [4]; HL-60, read-out: Antiproliferative IC50): 52.72 ± 0.22 µM; IC50 (AGS cells; AGS): 65.75 ± 0.41 µM; AC50 (HT-29 cells): > 100 µM

Reference: US20140039044A1, “Hydroxylated Polymethoxyflavone Compositions” (WLLGEN, INC., priority 2006, published 2014)
